Columns and labels:
KSR = biological target: T1, KSR (Mus musculus, UniProt Q61097); assay: KSR autophosphorylation after treatment of COS-7 cells expressing KSR; format: cell-based, mouse (KSR expressed in COS-7 cells); conditions: TNFα 10 nM
T1 sequence (Q61097 1-873): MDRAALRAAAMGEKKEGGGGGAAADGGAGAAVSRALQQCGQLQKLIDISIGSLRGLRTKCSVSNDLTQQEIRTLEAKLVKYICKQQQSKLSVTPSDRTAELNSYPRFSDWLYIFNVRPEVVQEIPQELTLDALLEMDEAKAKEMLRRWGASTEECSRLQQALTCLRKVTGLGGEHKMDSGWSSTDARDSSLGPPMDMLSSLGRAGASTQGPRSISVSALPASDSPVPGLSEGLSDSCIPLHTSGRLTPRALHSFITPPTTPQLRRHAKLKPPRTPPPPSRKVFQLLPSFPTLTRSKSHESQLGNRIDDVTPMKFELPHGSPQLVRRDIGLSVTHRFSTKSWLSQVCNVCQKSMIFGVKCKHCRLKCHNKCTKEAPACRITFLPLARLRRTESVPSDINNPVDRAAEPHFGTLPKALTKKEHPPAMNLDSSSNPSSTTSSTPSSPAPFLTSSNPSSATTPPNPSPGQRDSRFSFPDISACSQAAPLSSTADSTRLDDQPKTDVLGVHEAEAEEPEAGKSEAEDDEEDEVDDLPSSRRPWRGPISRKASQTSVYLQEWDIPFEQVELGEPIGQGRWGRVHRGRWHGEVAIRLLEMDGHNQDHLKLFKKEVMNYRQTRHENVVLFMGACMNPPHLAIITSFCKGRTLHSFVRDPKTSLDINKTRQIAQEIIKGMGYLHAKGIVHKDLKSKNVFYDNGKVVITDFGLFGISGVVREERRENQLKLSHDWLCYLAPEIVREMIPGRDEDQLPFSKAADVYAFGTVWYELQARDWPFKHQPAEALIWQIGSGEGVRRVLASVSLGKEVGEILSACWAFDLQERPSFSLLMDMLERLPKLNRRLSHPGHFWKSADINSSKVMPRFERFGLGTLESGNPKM
Method: FIG. 23A--COS-7 cells were transfected as in FIG. 22A and placed in serum-free medium. After 4 hours, cells were stimulated for 10 min with the ceramide analog, C2-ceramide (Biomol), at the concentrations indicated. Cells were lysed with NP-40 lysis buffer, and Flag-tagged KSR (0.8 mg protein for each point) was immunoprecipitated and assayed for autophosphorylation activity as described in Experimental Procedures. The autoradiogram was exposed for 1 hour. KSR is expressed at similar levels in each sample as monitored by Western blot (data not shown). Data represent one of three similar experiments.
COS-7 cells expressing Flag-tagged KSR were stimulated with 10 nM TNFα for the times indicated and lysed with NP-40 buffer as in FIG. 2A. […] The autoradiogram was exposed for 1 hour. Data represent one of three similar experiments.
KSR was immunoprecipitated as above from 0.8 mg NP-40 lysate protein with 40 μl agarose-conjugated anti-Flag antibody at 4° C. for 4 hrs or overnight. […] The reaction was stopped by addition of Laemmli sample buffer. Samples were resolved by 7.5% sodium dodecyl sulfate-polyacrylamide gel electrophoresis (SDS-PAGE) and autoradiographed.

[1] = system: ceramide-activated protein kinase; conditions: ref. [40]; cited from earlier work
EL-4 cells = assay: Sphingomyelin and ceramide levels in intact EL-4 cells; format: cell-based, murine; conditions: maximally effective concentrations (n=5)
Method: IL-1β effects on sphingomyelin levels in EL4 cells. Time course (A) and dose response (B). Cells were grown to growth arrest (1-1.5×10^6 cells ml^-1) in DME/Ham's F12 medium (1:1, v/v) containing 10% horse serum and for 48 hours [^3 H]choline (1 μCi ml^-1). On the day of an experiment, cells were resuspended back into the same medium at 10×10^6 cells ml^-1 and stimulated with 40 ng ml^-1 IL-1β for the indicated times (A) or for 30 minutes with increasing concentrations of IL-1β (B). Human IL-1β may be obtained using methods well known to those skilled in the art. Reactions were terminated with CHCl3 :CH3 OH:HCl (100:100:1) containing 10 mM EDTA (82). Lipids in the organic phase extract were dried under N2 and subjected to mild alkaline hydrolysis (0.1 M methanolic KOH for 1 hour at 37° C.) to remove glycerophospholipids. Sphingomyelin was resolved by thin-layer chromatography (TLC) using CHCl3 :CH3 OH:CH3 COOH:H2 O (60:30:8:5) as solvent, identified by iodine vapor staining, and quantified by liquid scintillation spectrometry. As previously reported, the use of [^3 H]choline as a measure of sphingomyelin content was validated by simultaneous phospholipid phosphorus measurements. Each value represents the mean±SEM of triplicate determinations from four experiments in (A), and one representative of four similar studies performed in triplicate in (B).
Effect of IL-1β on ceramide levels in EL-4 cells. Cells were stimulated as in FIG. 12 with IL-1β (40 ng ml^-1) and ceramide contained within the organic phase extract quantified enzymatically using the E. coli diacylglycerol kinase reaction. Lipids were resolved by TLC using CHCl3 :CH3 OH:CH3 COOH (65/15/5) as solvent, autoradiographed and quantified by liquid scintillation spectrometry. Each value represents the mean±SEM of triplicate determinations from 10 experiments.
The murine thymoma EL-4 cell line is a well-defined IL-1 responsive cell line that expresses functional IL-1 receptors. Upon stimulation with IL-1, these cells up-regulate the IL-2 receptor and secrete IL-2 [62]. Initial studies were designed to investigate the effects of IL-1β on cellular sphingomyelin content. Cells, grown in Dulbecco's Modified Eagle's (DME)/Ham's F-12 medium containing 10% horse serum and [^3 H]choline (1 μCi ml^-1), were resuspended back into the same medium at 10×10^6 cells ml^-1 and stimulated with IL-1β. IL-1β is commercially available.

| Molecule | KSR autophosphorylating activity (KSR) | time to maximal effect (KSR; autophosphorylation, Raf-1 phosphorylation and activation) | ED50 for stimulation of ceramide-activated protein kinase in intact cells [1] | ceramide response (EL-4 cells) |
| --- | --- | --- | --- | --- |
| TNF-α | time-dependent enhancement | ≤ 20 min | 200 pM | – |
| CCCCCCCCCCCCCC(=O)O[C@@H]1[C@@H](C)[C@@]2(O)[C@@H](C=C(CO)C[C@]3(O)C(=O)C(C)=C[C@@H]23)[C@@H]2C(C)(C)[C@]12OC(C)=O [TPA, 12-0-tetradecanoylphorbol-13-acetate] | – | – | – | failed to elicit a ceramide response |

Source: patent US6040149A, “Assay for identifying agents which act on the ceramide-activated protein kinase, kinase suppressor of ras, and methods of using said agents” (priority 1997, dated 2000)
